Data published in patent US20150352108A1, “AMINO-PYRIMIDINE COMPOUNDS AS INHIBITORS OF TBK1 AND/OR IKK EPSILON” (Alzheimer's Institute of America, priority 2009, published 2015).
Read-outs that look alike come from different tables or passages of the source.

Legend:
TBK1 = target: T1, TBK1 (Homo sapiens, UniProt Q9UHD2); experiment: In-vitro TBK1 kinase assay ([γ33]ATP filter-plate); type: biochemical
T1 construct: His-tag; made in house; host or cells: Sf9 insect cells
T1 sequence (Q9UHD2 1-729): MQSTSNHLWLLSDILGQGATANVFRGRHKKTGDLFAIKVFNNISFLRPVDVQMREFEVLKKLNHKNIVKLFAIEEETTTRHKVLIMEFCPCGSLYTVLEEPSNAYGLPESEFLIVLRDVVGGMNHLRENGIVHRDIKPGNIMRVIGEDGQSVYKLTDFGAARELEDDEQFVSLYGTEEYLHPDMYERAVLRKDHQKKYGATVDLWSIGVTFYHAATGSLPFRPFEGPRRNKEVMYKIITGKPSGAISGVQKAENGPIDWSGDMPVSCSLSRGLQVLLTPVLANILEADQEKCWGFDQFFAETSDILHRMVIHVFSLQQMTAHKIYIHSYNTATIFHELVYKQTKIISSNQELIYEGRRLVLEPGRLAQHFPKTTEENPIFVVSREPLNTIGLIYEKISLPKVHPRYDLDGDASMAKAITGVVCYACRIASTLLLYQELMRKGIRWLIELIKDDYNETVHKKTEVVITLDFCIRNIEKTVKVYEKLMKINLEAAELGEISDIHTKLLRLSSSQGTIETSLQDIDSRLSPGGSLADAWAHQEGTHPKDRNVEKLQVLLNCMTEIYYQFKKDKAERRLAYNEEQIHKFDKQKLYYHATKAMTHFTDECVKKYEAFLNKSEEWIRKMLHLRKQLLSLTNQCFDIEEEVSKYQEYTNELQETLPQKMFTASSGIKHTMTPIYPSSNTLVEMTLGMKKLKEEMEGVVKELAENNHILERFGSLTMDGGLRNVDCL
Procedure, shortened: (§1)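 His-tagged IKKε and TBK1 from Sf9 cells were assayed with myelin basic protein or casein and [γ33]ATP at 2×Km ATP (32 μM for IKKε, 60 μM for TBK1). Enzyme was 0.1 or 0.015 μg/ml for IKKε and 0.1 or 0.02 μg/ml for TBK1 (normal/sensitized). Reactions ran 30-45 min, were filter-captured, scintillation-counted, and normalized to DMSO after background subtraction.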

[1] = tested on: IKKε-mediated phosphorylation of IRF3; experiment: In-situ phosphorylation of IRF3 (pIRF3 Ser396 ELISA) in HEK293T cells cotransfected with IRF3 and IKKε; type: cell-based; details: Homo sapiens, HEK-293T
Procedure, shortened: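 For the IRF3 ELISA, HEK293T cells cotransfected with IRF3 and IKKε were replated at 20,000/well and treated 20 h. Phospho-Ser396 IRF3 was measured by ELISA and normalised to DMSO, with viability checked by CellTiter-Glo. For IRF7, cells transfected with IRF7 and TBK1 were treated overnight, and pSer477/Ser479 IRF7 was detected by Western blot.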

IKKε = target: T2, IKKε (Homo sapiens, UniProt Q14164); experiment: In-vitro IKKε kinase assay ([γ33]ATP filter-plate); type: biochemical
T2 construct: His-tag; made in house; host or cells: Sf9 insect cells
T2 sequence (Q14164 1-716): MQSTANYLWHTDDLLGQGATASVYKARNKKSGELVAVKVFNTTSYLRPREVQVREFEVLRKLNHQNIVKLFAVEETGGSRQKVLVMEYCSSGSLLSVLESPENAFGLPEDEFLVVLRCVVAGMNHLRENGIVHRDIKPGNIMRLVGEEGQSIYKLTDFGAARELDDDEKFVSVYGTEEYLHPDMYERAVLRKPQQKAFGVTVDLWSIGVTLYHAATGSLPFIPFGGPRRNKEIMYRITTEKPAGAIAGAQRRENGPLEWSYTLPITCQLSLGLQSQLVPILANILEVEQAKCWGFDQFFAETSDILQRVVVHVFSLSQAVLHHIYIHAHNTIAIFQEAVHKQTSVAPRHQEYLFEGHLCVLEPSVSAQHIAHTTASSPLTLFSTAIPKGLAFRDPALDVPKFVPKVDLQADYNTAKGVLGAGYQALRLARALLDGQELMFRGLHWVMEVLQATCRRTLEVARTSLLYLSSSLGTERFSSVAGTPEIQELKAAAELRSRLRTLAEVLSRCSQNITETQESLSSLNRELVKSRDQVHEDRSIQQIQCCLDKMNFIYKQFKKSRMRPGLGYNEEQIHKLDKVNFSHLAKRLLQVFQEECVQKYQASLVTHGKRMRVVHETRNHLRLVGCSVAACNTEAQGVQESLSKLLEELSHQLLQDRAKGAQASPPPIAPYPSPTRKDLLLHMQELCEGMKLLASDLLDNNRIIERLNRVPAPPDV
Procedure, shortened: as §1

[2] = text bins, read-out: IC50 for inhibition of the kinase activity of TBK1
[3] = HEK293T cells in culture, Table 3, read-out: pIRF3 ELISA IC50
[4] = text bins, read-out: IC50 for inhibition of the kinase activity of IKKε
[5] = HEK293T cells, 20 hours, text bins, read-out: IC50 for inhibition of the in-situ IKKε-mediated phosphorylation of IRF3

| Structure (SMILES) | IC50 (TBK1; Table 3, read-out: TBK1 IC50) [nM] | IC50 (TBK1; [2]) [nM] | IC50 [1, 3] [nM] | IC50 (IKKε; Table 3, read-out: IKKε IC50) [nM] | IC50 (IKKε; [4]) [nM] | IC50 [1, 5] [nM] |
| --- | --- | --- | --- | --- | --- | --- |
| N#Cc1cc(-c2ccnc(Nc3cccc(-c4nnn[nH]4)c3)n2)ccc1OC1CCOCC1 [compound 594, 2-(Tetrahydro-2H-pyran-4-yloxy)-5-(2-{[3-(1H-tetrazol-5-yl)phenyl]amino}pyrimidin-4-yl)benzonitrile] | 2 | < 10 | > 5000 | 0.3 | < 5 |  |
| COc1ccc(Nc2nccc(-c3ccc(OC4CCOCC4)c(C#N)c3)n2)cc1OCCCN1CCN(C(=O)C(C)C)CC1 [compound 524, 5-{2-[(4-methoxy-3-{3-[4-(2-methylpropanoyl)piperazin-1-yl]propoxy}phenyl)amino]pyrimidin-4-yl}-2-(tetrahydro-2H-pyran-4-yloxy)benzonitrile] |  | < 10 |  |  | < 5 | 100 to 250 |
| COc1cc(Nc2nccc(-c3ccc(OC4CCOCC4)c(C#N)c3)n2)ccc1C(=O)N1CC(N2CCOCC2)C1 [compound 475, 5-{2-[(3-Methoxy-4-{[3-(morpholin-4-yl)azetidin-1-yl]carbonyl}phenyl)amino]pyrimidin-4-yl}-2-(tetrahydro-2H-pyran-4-yloxy)benzonitrile] |  | < 10 |  |  | < 5 | < 100 |
| N#Cc1cc(-c2ccnc(Nc3cccc(NC(=O)N4CCOCC4)c3)n2)ccc1OC1CCOCC1 [compound 646, N-[3-({4-[3-Cyano-4-(tetrahydro-2H-pyran-4-yloxy)phenyl]pyrimidin-2-yl}amino)phenyl] morpholine-4-carboxamide] | 1.3 | < 10 | 30.9 | 0.7 | < 5 | < 100 |
| COC1CN(Cc2ccc(Nc3nccc(-c4ccc(OC5CCOCC5)c(C#N)c4)n3)cc2)C1 [compound 487] |  | < 10 |  |  | < 5 | < 100 |
| COc1cc(-c2ccnc(Nc3ccc(N4CCOCC4)cc3)n2)cc(C#N)c1OC1CCNCC1 [compound 440, 3-Methoxy-5-(2-{[4-(morpholin-4-yl)phenyl]amino}pyrimidin-4-yl)-2-(piperidin-4-yloxy)benzonitrile] |  | < 10 |  |  | < 5 | < 100 |
| N#Cc1cc(-c2ccnc(Nc3ccc(CN4CC(O)C4)cc3)n2)ccc1OC1CCOCC1 [compound 497, 5-[2-({4-[(3-hydroxyazetidin-1-yl)methyl]phenyl}amino)pyrimidin-4-yl]-2-(tetrahydro-2H-pyran-4-yloxy)benzonitrile] |  | < 10 |  |  | < 5 | < 100 |
| N#Cc1cc(-c2ccnc(Nc3ccc(N4CCN(CCO)CC4)cc3)n2)ccc1OCC1CC1 [compound 439, 2-(Cyclopropylmethoxy)-5-[2-({4-[4-(2-hydroxyethyl)piperazin-1-yl]phenyl}amino)pyrimidin-4-yl]benzonitrile] | 0.3 | < 10 | 8 | 0.4 | < 5 | < 100 |
| CCOC(=O)C(C)NCc1ccc(Nc2nccc(-c3ccc(OC4CCOCC4)c(C#N)c3)n2)cc1 (centres unmarked) [compound 489, ethyl N-[4-({4-[3-cyano-4-(tetrahydro-2H-pyran-4-yloxy)phenyl]pyrimidin-2-yl}amino)benzyl] alaninate] |  | < 10 |  |  | < 5 | 100 to 250 |
| N#Cc1cc(-c2ccnc(Nc3cccc(NCCN4CCOCC4)c3)n2)ccc1OC1CCOCC1 [compound 657] | 1.3 | < 10 | 97.6 | 1.3 | < 5 | < 100 |

Other lines, results leading:

| IC50 (TBK1; Table 3, read-out: TBK1 IC50) [nM] | IC50 (TBK1; [2]) [nM] | IC50 [1, 3] [nM] | IC50 (IKKε; Table 3, read-out: IKKε IC50) [nM] | IC50 (IKKε; [4]) [nM] | IC50 [1, 5] [nM] | Structure (SMILES) |
| --- | --- | --- | --- | --- | --- | --- |
|  | < 10 |  |  | < 5 | < 100 | CN(C)S(=O)(=O)Cc1ccc(Nc2nccc(-c3ccc(OC4CCOCC4)c(C#N)c3)n2)cc1 [compound 401, 1-[4-({4-[3-Cyano-4-(tetrahydro-2H-pyran-4-yloxy)phenyl]pyrimidin-2-yl}amino)phenyl]-N,N-dimethylmethane-sulfonamide] |
| 0.4 | < 10 | 19.9 | 0.8 | < 5 | < 100 | COc1cc(Nc2nccc(-c3ccc(OC4CCOCC4)c(C#N)c3)n2)ccc1C(=O)N1CCCC1 [compound 613, 5-(2-{[3-Methoxy-4-(pyrrolidin-1-ylcarbonyl)phenyl]amino}pyrimidin-4-yl)-2-(tetrahydro-2H-pyran-4-yloxy)benzonitrile] |
| 0.4 | < 10 | 349 | 0.6 | < 5 | 250 to 500 | COc1cc(Nc2nccc(-c3ccc(OC4CCOCC4)c(C#N)c3)n2)ccc1C(=O)NC1CCN(C)CC1 [compound 381, 4-({4-[3-cyano-4-(tetrahydro-2H-pyran-4-yloxy)phenyl]pyrimidin-2-yl}amino)-2-methoxy-N-(1-methylpiperidin-4-yl)benzamide] |
|  | < 10 |  |  | < 5 | < 100 | COc1cc(Nc2nccc(-c3ccc(OC4CCOCC4)c(C#N)c3)n2)ccc1C(=O)N(C)C1CCN(C)C1 (centres unmarked) [compound 385, 4-({4-[3-cyano-4-(tetrahydro-2H-pyran-4-yloxy)phenyl]pyrimidin-2-yl}amino)-2-methoxy-N-methyl-N-(1-methylpyrrolidin-3-yl)benzamide] |
|  | < 10 |  |  | < 5 | < 100 | COc1cc(Nc2nccc(-c3ccc(OC4CCOCC4)c(C#N)c3)n2)ccc1C(=O)N1CC(CN(C)C)C1 [compound 507, 5-(2-{[4-({3-[(dimethylamino)methyl]azetidin-1-yl}carbonyl)-3-methoxyphenyl]amino}pyrimidin-4-yl)-2-(tetrahydro-2H-pyran-4-yloxy)benzonitrile] |
|  | < 10 |  |  | < 5 | < 100 | N#Cc1cc(-c2ccnc(Nc3ccc(CS(=O)(=O)NCCCN4CCOCC4)cc3)n2)ccc1OC1CCOCC1 [compound 405, 1-[4-({4-[3-Cyano-4-(tetrahydro-2H-pyran-4-yloxy)phenyl]pyrimidin-2-yl}amino)phenyl]-N-[3-(morpholin-4-yl)propyl] methanesulfonamide] |
|  | < 10 |  |  | < 5 | < 100 | N#Cc1cc(-c2ccnc(Nc3ccc(CS(=O)(=O)N4CCOCC4)cc3)n2)ccc1OC1CCOCC1 [compound 404, 5-[2-({4-[(Morpholin-4-ylsulfonyl)methyl]phenyl}amino)pyrimidin-4-yl]-2-(tetrahydro-2H-pyran-4-yloxy)benzonitrile] |
|  | < 10 |  |  | < 5 | 100 to 250 | Cc1ccc(Nc2nccc(-c3ccc(OC4CCOCC4)c(C#N)c3)n2)cc1OCCN1CCN(C(C)C)CC1 [compound 597, 5-{2-[(4-Methyl-3-{2-[4-(propan-2-yl)piperazin-1-yl]ethoxy}phenyl)amino]pyrimidin-4-yl}-2-(tetrahydro-2H-pyran-4-yloxy)benzonitrile] |
